Data as given in ChEMBL document CHEMBL1143357, “Synthesis and biological activities of high affinity taxane-based fluorescent probes” (Bioorg Med Chem Lett, 2009).

Tests used:
A2780 [1] = test: cells; settings: Homo sapiens, A2780, 48 h
Description: Cytotoxicity against human A2780 cells after 48 hrs by MTT assay

A2780 [2] = test: Resistant factor, ratio of IC50 for p-glycoprotein expressing drug-resistant human A2780AD cells to IC50 for human A2780 cells; format: functional
A2780 [3] = settings: Homo sapiens, A2780, 48 h
[4] = Induction of assembly of GTP-tubulin into microtubules assessed as critical concentration
[5] = Displacement of non-fluorescent ligand from paclitaxel binding site of microtubule

| SMILES | IC50 (A2780 [1]) [µM] | Ratio IC50 (A2780 [2]) | IC50 (A2780 [3]) [µM] | Activity [4] [µM] | Ka [5] [×10⁸ /M] |
| --- | --- | --- | --- | --- | --- |
| COc1cccc(C(=O)O[C@H]2[C@@H]3[C@]4(OC(C)=O)CO[C@@H]4C[C@H](OC(=O)[C@H](C)NC(=O)c4ccc(-c5c6cc(F)c(=O)cc-6oc6cc(O)c(F)cc56)c(C(=O)O)c4)[C@@]3(C)C(=O)[C@H](OC(C)=O)C3=C(C)[C@@H](OC(=O)[C@H](O)[C@@H](NC(=O)c4ccccc4)c4ccccc4)C[C@]2(O)C3(C)C)c1 | 0.272 | 26.4 | 7.2 | 2.17 | – |
| C/C=C(\C)C(=O)N[C@@H](c1ccccc1)[C@@H](O)C(=O)O[C@H]1C[C@@]2(O)[C@@H](OC(=O)c3cccc(N=[N+]=[N-])c3)[C@@H]3[C@]4(OC(C)=O)CO[C@@H]4C[C@H](OC(=O)[C@H](C)NC(=O)c4ccc(-c5c6ccc(=O)cc-6oc6cc(O)ccc56)c(C(=O)O)c4)[C@@]3(C)C(=O)[C@H](OC(C)=O)C(=C1C)C2(C)C | 0.22 | >91 | > 20 | 2.45 | – |
| COc1cccc(C(=O)O[C@H]2[C@@H]3[C@]4(OC(C)=O)CO[C@@H]4C[C@H](OC(=O)[C@H](C)NC(=O)c4ccc(-c5c6ccc(=O)cc-6oc6cc(O)ccc56)c(C(=O)O)c4)[C@@]3(C)C(=O)[C@H](OC(C)=O)C3=C(C)[C@@H](OC(=O)[C@H](O)[C@@H](NC(=O)c4ccccc4)c4ccccc4)C[C@]2(O)C3(C)C)c1 | 0.0195 | 36.7 | 0.716 | 2.26 | – |
| C/C(=C\c1csc(C)n1)[C@@H]1C[C@@H]2O[C@]2(C)CCC[C@H](C)[C@H](O)[C@@H](C)C(=O)C(C)(C)[C@@H](O)CC(=O)O1 | – | – | – | – | 7.5 |
| CC(=O)O[C@@]12CO[C@@H]1C[C@H](O)[C@@]1(C)C(=O)[C@H](O)C3=C(C)[C@@H](OC(=O)[C@H](O)[C@@H](NC(=O)OC(C)(C)C)c4ccccc4)C[C@@](O)([C@@H](OC(=O)c4ccccc4)[C@H]21)C3(C)C.O.O.O [DOCETAXEL] | 0.0006 | 483 | 0.29 | 2.5 | – |
| CC(=O)O[C@H]1C(=O)[C@]2(C)[C@@H](OC(=O)[C@H](C)NC(=O)c3ccc(-c4c5ccc(=O)cc-5oc5cc(O)ccc45)c(C(=O)O)c3)C[C@H]3OC[C@@]3(OC(C)=O)[C@H]2[C@H](OC(=O)c2ccccc2)[C@]2(O)C[C@H](OC(=O)[C@H](O)[C@@H](NC(=O)c3ccccc3)c3ccccc3)C(C)=C1C2(C)C [FLUTAX 1] | 0.256 | >78 | > 20 | 3.84 | – |
| CC(=O)O[C@H]1C(=O)[C@]2(C)[C@@H](OC(=O)[C@H](C)NC(=O)c3ccc(-c4c5cc(F)c(=O)cc-5oc5cc(O)c(F)cc45)c(C(=O)O)c3)C[C@H]3OC[C@@]3(OC(C)=O)[C@H]2[C@H](OC(=O)c2ccccc2)[C@]2(O)C[C@H](OC(=O)[C@H](O)[C@@H](NC(=O)c3ccccc3)c3ccccc3)C(C)=C1C2(C)C [FLUTAX 2] | 0.8 | >25 | > 20 | 3.22 | – |
| CC(=O)O[C@H]1C(=O)[C@@]2(C)[C@H]([C@H](OC(=O)c3ccccc3)[C@]3(O)C[C@H](OC(=O)[C@H](O)[C@@H](NC(=O)c4ccccc4)c4ccccc4)C(C)=C1C3(C)C)[C@]1(OC(C)=O)CO[C@@H]1C[C@@H]2O [PACLITAXEL] | 0.0013 | – | – | 4.23 | – |
